Test results from patent US6187800A, “Method for the prevention and treatment of mastitis” (Novartis Animal Health U.S., Inc., priority 1997, dated 2001).

What was measured:
[1] = test system: pathogens causing bovine mastitis; assay: Activity against mastitis pathogens (general statement); assay type: cell-based
[2] = Hydrophobicity and water solubility
[3] = test system: Lactobacillus bulgaricus; assay: Acidification of milk from treated cows by lactic fermenting bacteria; assay type: cell-based; conditions: 3 doses at 12 h
Excerpt: (§1) Acidification is the first and most important step in the manufacturing processes when milk is fermented. If acidification proceeds normally then it is very likely that all other steps will be normal. Therefore one can investigate the effect of different concentrations of micrococcin P1 on the kinetics of acidification of milk by lactic fermenting bacteria.
(§2) Cows that are free from infection with mastitis pathogens, based on bacteriological culture of milk, are enrolled in these trials. Identical treatments are administered to all 4 quarters of an individual cow. Milk from evening milkings is refrigerated at 4° C. overnight to be tested the following morning. Samples of 500 ml are pasteurized by heating to 80° C. in a waterbath and then cooled to room temperature.
(§3) Lyophylised cultures as used in commercial conditions are obtained from Rudolf Wittwer, CH-5002 Rombach, Aarau, Switzerland. These cultures are reconstituted according to manufacturers recommendations and reactivated by passage three times in sterile skimmed milk. Each passage is incubated for 16 to 18 hours at the optimum temperature for the said bacterial strain.
(§4) The culture obtained after the third passage is diluted to 2% with whole sterile (UHT) milk, aliquotted in 10 ml tubes and frozen at -20° C. for use in experiments.
(§5) The stock cultures prepared above are thawed at 40° C. then incubated overnight at 37° C. and used to inoculate test samples. The test samples are inoculated with 2% by volume of the experimental culture of the bacterial strain under test. The samples are then mixed and incubated for 24 hours at the optimal temperature for the particular bacterial strain under evaluation. The pH is measured each two hours during an eight hour period and again at 24 hours. The rate of acidification of milk containing different concentrations of active micrococcin P1 can then be compared to the negative controls.
(§6) The results given in tables 4 and 5 below have been obtained from cows receiving various amounts of micrococcin P1 on three occasions, at 12 hour intervals.

[4] = test system: Streptococcus thermophilus; assay: as above; assay type: cell-based; conditions: 3 doses at 12 h
Excerpt: as §1, §2, §3, §4, §5, §6

[5] = test system: Staphylococcus aureus; assay: Efficacy in subclinical bovine mastitis (experimentally infected quarters, intramammary treatment); assay type: in vivo, cows (bovine); conditions: n = 9
Excerpt: A dairy herd is maintained to supply candidate cows for enrollment in trials. Cows are bought from local cattle dealers. These cows should have a minimal milk production of 15 l/day. Two milk samples are taken one day apart from all quarters for bacteriological examination. No cows from which mastitis pathogens can be recovered are entered into the tests. Non-infected cows are selected based on non recovery of Staphylococcus aureus from two milk samples taken one day apart from all quarters. Then, 3 quarters are inoculated via the intramammary route using a suspension of Staphylococcus aureus. The 4th quarter serves as a control for the milking hygiene routines. During the two to four weeks after inoculation, milk samples are taken from all quarters, at least 3 times. These samples are cultured, and if Staphylococcus aureus is recovered from at least two of them, the quarter is considered infected.
Treatments are assigned randomly to infected quarters and injected via the intramammary route. Milk samples are taken daily until a minimum of 14 days after the last treatment. A quarter is considered to be cured if milk samples from that quarter become negative (i.e., no Staphylococcus aureus can be recovered) within 7 days after the last treatment and stay negative throughout the following 14 day sampling period.
This experimental model is used to have a fixed framework on which to evaluate treatments. To work with Staphylococcus aureus has the advantage that it is the most difficult Gram positive bacterium to treat and one of the most important bacteria causing bovine mastitis. Therefore, cure rates should be expected to be lower than for other Gram positive bacteria, such as Streptococci and coagulase-negative Staphylococci.
The results presented in Table 2 show the percentage of quarters positive for Staphylococcus aureus (i.e., quarters from which Staphylococcus aureus can be recovered) during and after treatment with 3 doses of either placebo, 2 mg micrococcin P1, or 300 mg ampiclox at 12 hour intervals, or 3 doses with 4 mg micrococcin P1 at 48 hour intervals.

[6] = test system: Leuconostoc mesenteroides; assay: MIC, agar well diffusion method; assay type: cell-based; conditions: plate count agar +15% saccharose
Description: (§7) The minimal inhibitory concentrations (MIC) of micrococcin P1 against a panel of test organisms were determined using an agar well diffusion method. Agar plates were overlaid with soft agar seeded with the test organism. When the agar had solidified wells of 4 mm diameter were cut in the agar. 50 μl of a series of two fold dilutions of the peptide in citrate buffer pH4 were applied to the wells and the plates were kept at 4° C. for two hours prior to incubation at 37° C. overnight. The MIC was determined as the lowest concentration of peptide giving a clear zone of lysis around the well. Indicator strains were grown in Tryptose broth (Difco). M17 medium (Merck) was used for plates and soft agar with the following exceptions. For Pasteurella haemolytica, tryptose supplemented with 5% of toetal calf's serum was used. For Leuconostoc mesenteroides, plate count agar--Merck--, +15% saccharose was used, and for Bacillus cereus plate count agar +0.2% potato starch-Sigma 2004-) was used.

[7] = test system: Pasteurella haemolytica; assay: MIC, agar well diffusion method; assay type: cell-based; conditions: tryptose + 5% foetal calf's serum
Description: as §7

[8] = test system: Micrococcus luteus; assay: MIC, agar well diffusion method; assay type: cell-based; conditions: 37° C. overnight
Description: as §7

[9] = test system: Streptococcus uberis; assay: MIC, agar well diffusion method; assay type: cell-based; conditions: 37° C. overnight
Description: as §7

[10] = test system: E.coli; assay: MIC, agar well diffusion method; assay type: cell-based; conditions: 37° C. overnight
Description: as §7

[11] = test system: Listeria innocua; assay: MIC, agar well diffusion method; assay type: cell-based; conditions: 37° C. overnight
Description: as §7

[12] = test system: Staphylococcus aureus Newbould; assay: MIC, agar well diffusion method; assay type: cell-based; conditions: 37° C. overnight
Description: as §7

[13] = test system: Streptococcus faecalis; assay: MIC, agar well diffusion method; assay type: cell-based; conditions: 37° C. overnight
Description: as §7

[14] = test system: Bacillus cereus; assay: MIC, agar well diffusion method; assay type: cell-based; conditions: plate count agar +0.2% potato starch
Description: as §7

[15] = test system: Staphylococcus aureus V557; assay: MIC, agar well diffusion method; assay type: cell-based; conditions: 37° C. overnight
Description: as §7

**Q.** For C/C=C(\NC(=O)c1csc(-c2csc(-c3ccc4c(n3)-c3csc(n3)[C@H]([C@@H](C)O)NC(=O)c3csc(n3)[C@H](C(C)C)NC(=O)c3csc(n3)/C(=C/C)NC(=O)[C@H]([C@@H](C)O)NC(=O)c3csc-4n3)n2)n1)C(=O)NCC(C)=O [P2, micrococcin P2], which “activity against pathogens causing bovine mastitis” value [1] is on record?
**A.** highly active against pathogens causing bovine mastitis

**Q.** What about the hydrophobicity [2] of the same compound?
**A.** highly hydrophobic

**Q.** And the solubility in water [2]?
**A.** poorly soluble in water

**Q.** What does the source list for micrococcin P1?
**A.** activity against pathogens causing bovine mastitis [1]: highly active against pathogens causing bovine mastitis; pH (acidification of milk) ([3]; 0.1 mg, 0 hours of growth): 6.48; pH (acidification of milk) ([3]; 0.1 mg, 2 hours of growth): 5.73; pH (acidification of milk) ([3]; 0.1 mg, 4 hours of growth): 4.29; pH (acidification of milk) ([3]; 0.1 mg, 6 hours of growth): 3.89; pH (acidification of milk) ([3]; 0.1 mg, 8 hours of growth): 3.72; pH (acidification of milk) ([3]; 0.1 mg, 24 hours of growth): 3.51; pH (acidification of milk) ([3]; 0.5 mg, 0 hours of growth): 6.53; pH (acidification of milk) ([3]; 0.5 mg, 2 hours of growth): 5.36; pH (acidification of milk) ([3]; 0.5 mg, 4 hours of growth): 4.21; pH (acidification of milk) ([3]; 0.5 mg, 6 hours of growth): 3.85; pH (acidification of milk) ([3]; 0.5 mg, 8 hours of growth): 3.72; pH (acidification of milk) ([3]; 0.5 mg, 24 hours of growth): 3.47; pH (acidification of milk) ([3]; 1 mg, 0 hours of growth): 6.56; pH (acidification of milk) ([3]; 1 mg, 2 hours of growth): 5.83; pH (acidification of milk) ([3]; 1 mg, 4 hours of growth): 4.34; pH (acidification of milk) ([3]; 1 mg, 6 hours of growth): 3.94; pH (acidification of milk) ([3]; 1 mg, 8 hours of growth): 3.75; pH (acidification of milk) ([3]; 1 mg, 24 hours of growth): 3.50; pH (acidification of milk) ([3]; 2 mg, 0 hours of growth): 6.57; pH (acidification of milk) ([3]; 2 mg, 2 hours of growth): 5.69; pH (acidification of milk) ([3]; 2 mg, 4 hours of growth): 4.34; pH (acidification of milk) ([3]; 2 mg, 6 hours of growth): 3.92; pH (acidification of milk) ([3]; 2 mg, 8 hours of growth): 3.75; pH (acidification of milk) ([3]; 2 mg, 24 hours of growth): 3.49; pH (acidification of milk) ([4]; 0.1 mg, 0 hours of growth): 6.60; pH (acidification of milk) ([4]; 0.1 mg, 2 hours of growth): 6.03; pH (acidification of milk) ([4]; 0.1 mg, 4 hours of growth): 4.47; pH (acidification of milk) ([4]; 0.1 mg, 6 hours of growth): 4.08; pH (acidification of milk) ([4]; 0.1 mg, 8 hours of growth): 3.94; pH (acidification of milk) ([4]; 0.1 mg, 24 hours of growth): 3.52; pH (acidification of milk) ([4]; 0.5 mg, 0 hours of growth): 6.61; pH (acidification of milk) ([4]; 0.5 mg, 2 hours of growth): 6.04; pH (acidification of milk) ([4]; 0.5 mg, 4 hours of growth): 4.50; pH (acidification of milk) ([4]; 0.5 mg, 6 hours of growth): 4.13; pH (acidification of milk) ([4]; 0.5 mg, 8 hours of growth): 4.00; pH (acidification of milk) ([4]; 0.5 mg, 24 hours of growth): 3.51; pH (acidification of milk) ([4]; 1 mg, 0 hours of growth): 6.67; pH (acidification of milk) ([4]; 1 mg, 2 hours of growth): 6.20; pH (acidification of milk) ([4]; 1 mg, 4 hours of growth): 4.53; pH (acidification of milk) ([4]; 1 mg, 6 hours of growth): 4.11; pH (acidification of milk) ([4]; 1 mg, 8 hours of growth): 3.94; pH (acidification of milk) ([4]; 1 mg, 24 hours of growth): 3.48; pH (acidification of milk) ([4]; 2 mg, 0 hours of growth): 6.72; pH (acidification of milk) ([4]; 2 mg, 2 hours of growth): 6.33; pH (acidification of milk) ([4]; 2 mg, 4 hours of growth): 4.74; pH (acidification of milk) ([4]; 2 mg, 6 hours of growth): 4.25; pH (acidification of milk) ([4]; 2 mg, 8 hours of growth): 4.06; pH (acidification of milk) ([4]; 2 mg, 24 hours of growth): 3.57; % of quarters positive ([5]; 3 × 2 mg each 12 hours, day 0 after start of treatment): 100.0%; % of quarters positive ([5]; 3 × 2 mg each 12 hours, day 1 after start of treatment): 62.5%; % of quarters positive ([5]; 3 × 2 mg each 12 hours, day 2 after start of treatment): 12.5%; % of quarters positive ([5]; 3 × 2 mg each 12 hours, day 3 after start of treatment): 50.0%; % of quarters positive ([5]; 3 × 2 mg each 12 hours, day 4 after start of treatment): 50.0%; % of quarters positive ([5]; 3 × 2 mg each 12 hours, day 5 after start of treatment): 62.5%; % of quarters positive ([5]; 3 × 2 mg each 12 hours, day 7 after start of treatment): 62.5%; % of quarters positive ([5]; 3 × 2 mg each 12 hours, day 8 after start of treatment): 75.0%; % of quarters positive ([5]; 3 × 2 mg each 12 hours, day 9 after start of treatment): 75.0%; % of quarters positive ([5]; 3 × 2 mg each 12 hours, day 10 after start of treatment): 75.0%; % of quarters positive ([5]; 3 × 2 mg each 12 hours, day 11 after start of treatment): 87.5%; % of quarters positive ([5]; 3 × 2 mg each 12 hours, day 12 after start of treatment): 75.0%; % of quarters positive ([5]; 3 × 2 mg each 12 hours, day 14 after start of treatment): 87.5%; % of quarters positive ([5]; 3 × 2 mg each 12 hours, day 15 after start of treatment): 62.5%; % of quarters positive ([5]; 3 × 2 mg each 12 hours, day 16 after start of treatment): 75.0%; % of quarters positive ([5]; 3 × 4 mg each 48 hours, day 0 after start of treatment): 100%; % of quarters positive ([5]; 3 × 4 mg each 48 hours, day 1 after start of treatment): 22%; % of quarters positive ([5]; 3 × 4 mg each 48 hours, day 2 after start of treatment): 22%; % of quarters positive ([5]; 3 × 4 mg each 48 hours, day 3 after start of treatment): 11%; % of quarters positive ([5]; 3 × 4 mg each 48 hours, day 4 after start of treatment): 11%; % of quarters positive ([5]; 3 × 4 mg each 48 hours, day 5 after start of treatment): 0%; % of quarters positive ([5]; 3 × 4 mg each 48 hours, day 7 after start of treatment): 0%; % of quarters positive ([5]; 3 × 4 mg each 48 hours, day 8 after start of treatment): 22%; % of quarters positive ([5]; 3 × 4 mg each 48 hours, day 9 after start of treatment): 22%; % of quarters positive ([5]; 3 × 4 mg each 48 hours, day 10 after start of treatment): 22%; % of quarters positive ([5]; 3 × 4 mg each 48 hours, day 11 after start of treatment): 22%; % of quarters positive ([5]; 3 × 4 mg each 48 hours, day 12 after start of treatment): 22%; % of quarters positive ([5]; 3 × 4 mg each 48 hours, day 14 after start of treatment): 44%; % of quarters positive ([5]; 3 × 4 mg each 48 hours, day 15 after start of treatment): 44%; % of quarters positive ([5]; 3 × 4 mg each 48 hours, day 16 after start of treatment): 22%; MIC [6]: > 1000 µg/mL; MIC [7]: > 1000 µg/mL; MIC [8]: 0.015 µg/mL; MIC [9]: 1.49 µg/mL; MIC [10]: > 1000 µg/mL; MIC [11]: 1.95 µg/mL; MIC [12]: 0.24 µg/mL; MIC [13]: 1.98 µg/mL; MIC [14]: 0.24 µg/mL; MIC [15]: 1.91 µg/mL; hydrophobicity [2]: highly hydrophobic; solubility in water [2]: poorly soluble in water
